According to PubChem BioAssay (NCI):
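Following 48 hours of exposure in 96-well plates, responses at five concentrations were used to interpolate endpoints linearly. TGI denotes the concentration required for complete inhibition of growth.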

Key:
Assay in all cases: growth of human tumour cells (NCI), 48 h
SW-620 colon = test system: SW-620 colon
786-0 renal = test system: 786-0 renal
SNB-75 CNS = test system: SNB-75 CNS
UACC-62 melanoma = test system: UACC-62 melanoma
HCC-2998 colon = test system: HCC-2998 colon
SF-295 CNS = test system: SF-295 CNS
OVCAR-3 ovarian = test system: OVCAR-3 ovarian
SK-MEL-2 melanoma = test system: SK-MEL-2 melanoma
SK-MEL-5 melanoma = test system: SK-MEL-5 melanoma
A498 renal = test system: A498 renal
RXF 393 renal = test system: RXF 393 renal
MDA-MB-231 breast = test system: MDA-MB-231 breast
HL-60(TB) leukemia = test system: HL-60(TB) leukemia
HCT-116 colon = test system: HCT-116 colon
BT-549 breast = test system: BT-549 breast
HT29 colon = test system: HT29 colon
NCI-H226 lung = test system: NCI-H226 lung
HOP-62 NSCLC = test system: HOP-62 NSCLC
HS 578T breast = test system: HS 578T breast
MCF7 breast = test system: MCF7 breast
MDA-MB-435 = test system: MDA-MB-435
OVCAR-8 ovarian = test system: OVCAR-8 ovarian
SNB-19 CNS = test system: SNB-19 CNS
HOP-92 NSCLC = test system: HOP-92 NSCLC
U251 CNS = test system: U251 CNS
SF-539 CNS = test system: SF-539 CNS
A549 NSCLC = test system: A549 NSCLC
UO-31 renal = test system: UO-31 renal
TK-10 renal = test system: TK-10 renal
NCI-H522 lung = test system: NCI-H522 lung
SN12C renal = test system: SN12C renal
HCT-15 colon = test system: HCT-15 colon
SF-268 CNS = test system: SF-268 CNS
ACHN renal = test system: ACHN renal
IGROV1 ovarian = test system: IGROV1 ovarian
SK-OV-3 ovarian = test system: SK-OV-3 ovarian
MDA-N = test system: MDA-N
CCRF-CEM leukemia = test system: CCRF-CEM leukemia
SR leukemia = test system: SR leukemia
K-562 leukemia = test system: K-562 leukemia
CAKI-1 renal = test system: CAKI-1 renal
OVCAR-5 ovarian = test system: OVCAR-5 ovarian
NCI/ADR-RES ovarian = test system: NCI/ADR-RES ovarian
DU-145 prostate = test system: DU-145 prostate
PC-3 prostate = test system: PC-3 prostate
UACC-257 melanoma = test system: UACC-257 melanoma
T-47D breast = test system: T-47D breast
KM12 colon = test system: KM12 colon
NCI-H23 lung = test system: NCI-H23 lung
LOX IMVI melanoma = test system: LOX IMVI melanoma
COLO 205 colon = test system: COLO 205 colon
NCI-H460 lung = test system: NCI-H460 lung
SK-MEL-28 melanoma = test system: SK-MEL-28 melanoma
EKVX NSCLC = test system: EKVX NSCLC
M14 melanoma = test system: M14 melanoma
OVCAR-4 ovarian = test system: OVCAR-4 ovarian
RPMI-8226 leukemia = test system: RPMI-8226 leukemia

COC(=O)c1cnc(Cl)c([N+](=O)[O-])c1
TGI (SW-620 colon): 4.78 µM
TGI (786-0 renal): 11.2 µM
TGI (SNB-75 CNS): 34.8 µM
TGI (UACC-62 melanoma): 32.1 µM
TGI (HCC-2998 colon): 21.5 µM
TGI (SF-295 CNS): 33.5 µM
TGI (OVCAR-3 ovarian): 28.7 µM
TGI (SK-MEL-2 melanoma): 31.5 µM
TGI (SK-MEL-5 melanoma): 27.2 µM
TGI (A498 renal): 40 µM
TGI (RXF 393 renal): 25.1 µM
TGI (MDA-MB-231 breast): 30.1 µM
TGI (HL-60(TB) leukemia): 5.73 µM
TGI (HCT-116 colon): 8.77 µM
TGI (BT-549 breast): 32.3 µM
TGI (HT29 colon): 32.6 µM
TGI (NCI-H226 lung): 36.5 µM
TGI (HOP-62 NSCLC): 36.5 µM
TGI (HS 578T breast): 76.4 µM
TGI (MCF7 breast): 4.34 µM
TGI (MDA-MB-435): 19.4 µM
TGI (OVCAR-8 ovarian): 3.95 µM
TGI (SNB-19 CNS): 32.4 µM
TGI (HOP-92 NSCLC): 4.25 µM
TGI (U251 CNS): 4.23 µM
TGI (SF-539 CNS): 32.1 µM
TGI (A549 NSCLC): 41.6 µM
TGI (UO-31 renal): 3.55 µM
TGI (TK-10 renal): 30.3 µM
TGI (NCI-H522 lung): 3.28 µM
TGI (SN12C renal): 25.8 µM
TGI (HCT-15 colon): 4.21 µM
TGI (SF-268 CNS): 7.6 µM
TGI (ACHN renal): 25.1 µM
TGI (IGROV1 ovarian): 8.1 µM
TGI (SK-OV-3 ovarian): 33.8 µM
TGI (MDA-N): 20.1 µM
TGI (CCRF-CEM leukemia): 5.1 µM
TGI (SR leukemia): 4.24 µM
TGI (K-562 leukemia): 4.8 µM
TGI (CAKI-1 renal): 25.7 µM
TGI (OVCAR-5 ovarian): 32 µM
TGI (NCI/ADR-RES ovarian): 68.3 µM
TGI (DU-145 prostate): 21.3 µM
TGI (PC-3 prostate): 22.6 µM
TGI (UACC-257 melanoma): 20.3 µM
TGI (T-47D breast): 4.68 µM
TGI (KM12 colon): 35 µM
TGI (NCI-H23 lung): 35.2 µM
TGI (LOX IMVI melanoma): 3.68 µM
TGI (COLO 205 colon): 12.2 µM
TGI (NCI-H460 lung): 31.5 µM
TGI (SK-MEL-28 melanoma): 36 µM
TGI (EKVX NSCLC): 3.28 µM
TGI (M14 melanoma): 27 µM
TGI (OVCAR-4 ovarian): 36.6 µM
TGI (RPMI-8226 leukemia): 5.3 µM
